Results on 25 compounds are retold here after patent US10562914B2, “Imidazoles as histone demethylase inhibitors” (Istituto Europeo di Oncologia S.r.l., priority 2016, dated 2020).

The structures appear in SMILES notation. Counter-ions that a name gives are not always drawn.

For experiment [1], the target named is T1, human recombinant KDM1A/CoREST protein (Homo sapiens, UniProt O60341).
T1 construct: made in house; host or cells: E. coli
As to the kind of experiment: Assay of enzyme inhibition of KDM1A (LSD1), TR-FRET. It counts as biochemical. The conditions noted are these: 0.25 nM KDM1A/CoREST, 50 nM H3K4 monomethylated peptide, 20 min at RT. The protocol:
2.1 Assay of Enzyme Inhibition of KDM1A (LSD1)
The intensity of the light emission is proportional to the level of biotinylated reaction product. The complex of human recombinant KDM1A/CoREST protein was produced in E. coli as separate proteins and co-purified as previously described.
Demethylase reaction was started by the addition of 50 nM histone H3K4 monomethylated.
The resulting mixture was incubated in the dark for 1 h at RT. Then, TR-FRET signal was read by a fluorimeter (Infinite® F200, Tecan, Männedorf, Swirzerland) (Excitation 320 nm, Emission 665 nm and 620 nm, delay time 50 μs, window time 100 μs).
The inhibitor concentrations ranged from 0.025 to 500 μM (serial 1:3 dilutions). The IC50 was calculated using GraphPad Software.
(In general: In TR-FRET formats the signal depends on donor and acceptor labels being close together.)

Experiment [2] deals with Human leukemia MV4-11 cells. As to the kind of experiment: Cell growth, CellTiter-Fluor viability assay, MV4-11. It counts as cell-based. The conditions noted are these: 48 h incubation, read-out: IC50 against human leukemia MV4-11 cells. The source says: (§1) CellTiter-Flor® (Promega) is as a nonlytic, single-reagent-addition fluorescence assay that measures the relative number of living cells in a culture population after experimental manipulation. The CellTiter-Fluor™ Cell Viability Assay measures the conserved and constitutive protease activity within live cells and therefore acts as a marker for cell viability.
(§2) Human leukemia MV4-11 cells, (obtained from the Deutsche Sammlung von Mikroorganismen und Zellkulturen, ACC 102) or NB4 cells, (obtained from the Deutsche Sammlung von Mikroorganismen und Zellkulturen) in exponential growth, were incubated for 48 h with different concentrations of the inhibitors. After 48 h a volume of CellTiter-Fluor® Reagent equal to one fifth of volume of cell culture medium was added. The content was mixed and incubates for at least 90 min at 37° C. degree to obtain a stable signal. The fluorescence was recorded using an excitation wavelength of 360 nm and an emission at 535 nm. The IC50 was calculated using GraphPad Software.

In experiment [3] the test system is human leukemia NB4 cells. As to the kind of experiment: Cell growth, CellTiter-Fluor viability assay, NB4. It counts as cell-based. The note with it: NB-4, 48 h incubation, read-out: IC50 against human leukemia NB4 cells.
Description: as §1, §2

With `CCc1c(-c2ccccc2)nc(-c2cc3sccc3n2C)n1CCOc1cccc(OC2CCNCC2)c1` [Example 32, 5-[5-ethyl-4-phenyl-1-[2-[3-(4-piperidyloxy)phenoxy]ethyl]imidazol-2-yl]-4-methyl-thieno[3,2-b]pyrrole], the figures for the IC50 in experiment [1], in experiment [2] and in experiment [3] were below 0.1 µM, below 10 µM and below 20 µM, respectively.
Taken in the same sequence, the figures for `CCc1cnc(-c2cc3sccc3n2C)n1CCOc1cccc(OC2CCNCC2)c1` [Example 19, 5-[5-ethyl-1-[2-[3-(4-piperidyloxy)phenoxy]ethyl]imidazol-2-yl]-4-methyl-thieno[3,2-b]pyrrole] were below 0.1 µM, below 10 µM and below 20 µM.
The matching figures for `CCc1cnc(-c2cc3sccc3n2C)n1CCOc1ccc(OC2CCCNCC2)cc1` (stereo not shown) [Example 26, 5-[1-[2-[4-(azepan-4-yloxy)phenoxy]ethyl]-5-ethyl-imidazol-2-yl]-4-methyl-thieno[3,2-b]pyrrole trifluoroacetate]: below 0.1 µM, below 10 µM and below 20 µM.
Regarding `CCCc1nc(-c2cc3sccc3n2C)n(CCOc2ccc(OC3CCNCC3)cc2)c1-c1ccccc1` [Example 40, 4-methyl-5-[5-phenyl-1-[2-[4-(4-piperidyloxy)phenoxy]ethyl]-4-propyl-imidazol-2-yl]thieno[3,2-b]pyrrole hydrochloride], the IC50 (commonly the point on the concentration scale where inhibition reaches its midpoint) in experiment [1] is below 0.1 µM; in experiment [3], below 10 µM.
In the case of `CCc1cnc(-c2cc3sccc3n2C)n1CCCc1ccc(OCC2CCNCC2)cc1` [Example 43, 5-[5-ethyl-1-[3-[4-(4-piperidylmethoxy)phenyl]propyl]imidazol-2-yl]-4-methyl-thieno[3,2-b]pyrrole], the results for the IC50 in experiment [1] and in experiment [3] were below 0.1 µM and below 10 µM, respectively.
With `Cn1c(-c2ncc(C3CCC3)n2CCCc2ccc(OC3CCNCC3)cc2)cc2sccc21` [Example 50, 5-[5-cyclobutyl-1-[3-[4-(4-piperidyloxy)phenyl]propyl]imidazol-2-yl]-4-methyl-thieno[3,2-b]pyrrole], the IC50 in experiment [1] is below 0.1 µM; in experiment [3] it was below 10 µM.
Taken in the same sequence, the figures for `CCc1cnc(-c2cc3sccc3n2C)n1CCCc1ccc(OC2CCCNCC2)cc1` (stereo not shown) [Example 45, 5-[1-[3-[4-(azepan-4-yloxy)phenyl]propyl]-5-ethyl-imidazol-2-yl]-4-methyl-thieno[3,2-b]pyrrole hydrochloride] were below 0.1 µM and below 10 µM.
Consider `CCc1c(-c2ccccc2)nc(-c2cc3sccc3n2C)n1CCOc1ccc(OC2CCNCC2)cc1` [Example 31, 5-[5-ethyl-4-phenyl-1-[2-[4-(4-piperidyloxy)phenoxy]ethyl]imidazol-2-yl]-4-methyl-thieno[3,2-b]pyrrole], for which the IC50 in experiment [1] is below 0.1 µM; in experiment [2], below 10 µM; in experiment [3] it was below 20 µM.
In the case of `CCc1cnc(-c2cc3sccc3n2C)n1CCCc1ccc(OCC2CCNCC2)c(OCC2CCNCC2)c1` [Example 57, 5-[1-[3-[3,4-bis(4-piperidylmethoxy)phenyl]propyl]-5-ethyl-imidazol-2-yl]-4-methyl-thieno[3,2-b]pyrrole dihydrochloride], the IC50 in experiment [1] is below 0.1 µM; in experiment [3], below 10 µM.
On to `CCc1cn(CCOc2ccc(OC3CCCNCC3)cc2)c(-c2cc3sccc3n2C)n1` (stereo not shown) [Example 25, 5-[1-[2-[4-(azepan-4-yloxy)phenoxy]ethyl]-4-ethyl-imidazol-2-yl]-4-methyl-thieno[3,2-b]pyrrole hydrochloride], for which the values for the IC50 in experiment [2] and in experiment [3] were below 10 µM and below 20 µM, respectively.
As to `CC(C)c1nc(-c2cc3sccc3n2C)n(CCOc2ccc(OC3CCNCC3)cc2)c1-c1ccccc1` [Example 48, 5-[4-isopropyl-5-phenyl-1-[2-[4-(4-piperidyloxy)phenoxy]ethyl]imidazol-2-yl]-4-methyl-thieno[3,2-b]pyrrole], the results for the IC50 in experiment [1] and in experiment [3] were below 0.1 µM and below 10 µM, respectively.
Regarding `CCc1cnc(-c2cc3sccc3n2C)n1CCOc1ccc(OCC2CCNCC2)cc1` [Example 24, 5-[5-ethyl-1-[2-[4-(4-piperidylmethoxy)phenoxy]ethyl]imidazol-2-yl]-4-methyl-thieno[3,2-b]pyrrole trifluoroacetate], the IC50 in experiment [1] is below 0.1 µM; in experiment [2], below 10 µM; in experiment [3], below 20 µM.
The matching figures for `CCc1cnc(-c2cc3sccc3n2C)n1CCCc1ccc(OC2CCNCC2)cc1` [Example 28, 5-[5-ethyl-1-[3-[4-(4-piperidyloxy)phenyl]propyl]imidazol-2-yl]-4-methyl-thieno[3,2-b]pyrrole hydrochloride]: below 0.1 µM, below 10 µM and below 20 µM.
Taken in the same sequence, the figures for `CCc1cnc(-c2cc3sccc3n2C)n1CCOc1ccc(OC2CCNCC2)cc1` [Example 21, 5-[5-ethyl-1-[2-[4-(4-piperidyloxy)phenoxy]ethyl]imidazol-2-yl]-4-methyl-thieno[3,2-b]pyrrole] were below 0.1 µM, below 10 µM and below 20 µM.
Regarding `CCc1cn(CCOc2ccc(OCC3CCNCC3)cc2)c(-c2cc3sccc3n2C)n1` [Example 23, 5-[4-ethyl-1-[2-[4-(4-piperidylmethoxy)phenoxy]ethyl]imidazol-2-yl]-4-methyl-thieno[3,2-b]pyrrole hydrochloride], the IC50 in experiment [1] is below 0.1 µM; in experiment [2], below 10 µM; in experiment [3] it was below 20 µM.
Turning to `CCc1cn(CCOc2ccc(OC3CCNCC3)cc2)c(-c2cc3ccsc3n2C)n1` [Example 39, 5-[4-ethyl-1-[2-[4-(4-piperidyloxy)phenoxy]ethyl]imidazol-2-yl]-6-methyl-thieno[2,3-b]pyrrole], the IC50 in experiment [1] is below 0.1 µM; in experiment [3] it was below 10 µM.
On to `CCc1cn(CCCc2ccc(OC3CCNCC3)cc2)c(-c2cc3sccc3n2C)n1` [Example 27, 5-[4-ethyl-1-[3-[4-(4-piperidyloxy)phenyl]propyl]imidazol-2-yl]-4-methyl-thieno[3,2-b]pyrrole hydrochloride], for which the IC50 in experiment [2] was below 10 µM; in experiment [3], below 20 µM.
Turning to `Cn1c(-c2nc(C3CCC3)cn2CCCc2ccc(OC3CCNCC3)cc2)cc2sccc21` [Example 49, 5-[4-cyclobutyl-1-[3-[4-(4-piperidyloxy)phenyl]propyl]imidazol-2-yl]-4-methyl-thieno[3,2-b]pyrrole hydrochloride], in experiment [3], the IC50 is below 10 µM.
Consider `CCc1cn(CCCc2ccc(OC3CCCNCC3)cc2)c(-c2cc3sccc3n2C)n1` (stereo not shown) [Example 44, 5-[1-[3-[4-(azepan-4-yloxy)phenyl]propyl]-4-ethyl-imidazol-2-yl]-4-methyl-thieno[3,2-b]pyrrole hydrochloride], for which, in experiment [3], the IC50 is below 10 µM.
For `CCCc1c(-c2ccccc2)nc(-c2cc3sccc3n2C)n1CCOc1ccc(OC2CCNCC2)cc1` [Example 41, 4-methyl-5-[4-phenyl-1-[2-[4-(4-piperidyloxy)phenoxy]ethyl]-5-propyl-imidazol-2-yl]thieno[3,2-b]pyrrole], the IC50 in experiment [1] is below 0.1 µM; in experiment [3], below 10 µM.
With `Cn1c(-c2nc(C3CCC3)cn2CCOc2ccc(OC3CCNCC3)cc2)cc2sccc21` [Example 29, 5-[4-cyclobutyl-1-[2-[4-(4-piperidyloxy)phenoxy]ethyl]imidazol-2-yl]-4-methyl-thieno[3,2-b]pyrrole hydrochloride], the IC50 is below 10 µM in experiment [2] and below 20 µM in experiment [3].
Turning to `CCc1c(-c2ccccc2)nc(-c2cc3sccc3n2C)n1CCCc1ccc(OC2CCNCC2)cc1` [Example 46, 5-[5-ethyl-4-phenyl-1-[3-[4-(4-piperidyloxy)phenyl]propyl]imidazol-2-yl]-4-methyl-thieno[3,2-b]pyrrole hydrochloride], the IC50 in experiment [1] was below 0.1 µM; in experiment [3] it was below 10 µM.
Consider `CCc1cn(CCCc2ccc(OCC3CCNCC3)cc2)c(-c2cc3sccc3n2C)n1` [Example 42, 5-[4-ethyl-1-[3-[4-(4-piperidylmethoxy)phenyl]propyl]imidazol-2-yl]-4-methyl-thieno[3,2-b]pyrrole hydrochloride], for which the IC50 in experiment [3] is below 10 µM.
On to `CCc1nc(-c2cc3sccc3n2C)n(CCCc2ccc(OC3CCNCC3)cc2)c1-c1ccccc1` [Example 47, 5-[4-ethyl-5-phenyl-1-[3-[4-(4-piperidyloxy)phenyl]propyl]imidazol-2-yl]-4-methyl-thieno[3,2-b]pyrrole hydrochloride], for which the IC50 was below 0.1 µM in experiment [1] and below 10 µM in experiment [3].
For the compound `CCc1cn(CCOc2ccc(OC3CCNCC3)cc2)c(-c2cc3sccc3n2C)n1` [Example 20, 5-[4-ethyl-1-[2-[4-(4-piperidyloxy)phenoxy]ethyl]imidazol-2-yl]-4-methyl-thieno[3,2-b]pyrrole hydrochloride], the IC50 was below 10 µM in experiment [2] and below 20 µM in experiment [3].
